Data published in patent US12655116B2, “Substituted isophthalic acid diamides” (Bayer Aktiengesellschaft, priority 2020, dated 2026).

Columns and labels:
VIOTR [1] = test: Pre-emergence herbicidal action against VIOTR; format: in vivo, Viola tricolor; conditions: Viola tricolor, 504 h
Method in brief: (§1)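 Herbicidal effect was assessed 3 weeks after treatment by visual comparison with untreated controls, 100% denoting dead plants. Aqueous WP or EC preparations had been applied at 600 to 800 l/ha with 0.2% wetting agent to the soil covering freshly sown seeds.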

SETVI [2] = test: Pre-emergence herbicidal action against SETVI; format: in vivo, Setaria viridis; conditions: Setaria viridis, 504 h
Method in brief: as §1

POLCO = test: Pre-emergence herbicidal action against POLCO; format: in vivo, Polygonum convolvulus; conditions: Fallopia convolvulus, 504 h, dosage 80 g/ha
Method in brief: as §1

ECHCG [3] = test: Post-emergence herbicidal action against ECHCG; format: in vivo, Echinochloa crus-galli; conditions: Echinochloa crus-galli, 504 h, dosage 20 g/ha
Method in brief: (§2)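 Post-emergence greenhouse test; one-leaf stage, 2–3 wk post-sowing, sandy loam. Foliar spray of WP/EC in water, 600–800 l/ha, +0.2% wetting agent. Visual % action at ~3 wk vs untreated (100% = plants dead).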

PHBPU = test: Post-emergence herbicidal action against PHBPU; format: in vivo, Pharbitis purpurea; conditions: Ipomoea purpurea, 504 h
Method in brief: as §2

DIGSA [4] = test: Pre-emergence herbicidal action against DIGSA; format: in vivo, Digitaria sanguinalis; conditions: Digitaria sanguinalis, 504 h
Method in brief: as §1

DIGSA [5] = test: Post-emergence herbicidal action against DIGSA; format: in vivo, Digitaria sanguinalis; conditions: Digitaria sanguinalis, 504 h
Method in brief: as §2

AMARE [6] = test: Post-emergence herbicidal action against AMARE; format: in vivo, Amaranthus retroflexus; conditions: Amaranthus retroflexus, 504 h, 20 g/ha, visual assessment about 3 weeks after treatment, 100% = plants have died, 0% = like control plants
Method in brief: as §2

ABUTH [7] = test: Post-emergence herbicidal action against ABUTH; format: in vivo, Abutilon theophrasti; conditions: Abutilon theophrasti, 504 h, visual assessment about 3 weeks after treatment vs untreated controls
Method in brief: as §2

AMARE [8] = test: Pre-emergence herbicidal action against AMARE; format: in vivo, Amaranthus retroflexus; conditions: Amaranthus retroflexus, 504 h, scored visually after 3 weeks vs untreated controls, 100% = plants have died, 0% = like control plants
Method in brief: as §1

MATIN [9] = test: Post-emergence herbicidal action against MATIN; format: in vivo, Matricaria inodora; conditions: Tripleurospermum inodorum, 504 h, dosage 20 g/ha
Method in brief: as §2

AVEFA [10] = test: Pre-emergence herbicidal action against AVEFA; format: in vivo, Avena fatua; conditions: Avena fatua, 504 h; 80 g/ha, pre-emergence
Method in brief: as §1

ALOMY [11] = test: Pre-emergence herbicidal action against ALOMY; format: in vivo, Alopecurus myosuroides; conditions: Alopecurus myosuroides, 504 h, pre-emergence
Method in brief: as §1

MATIN [12] = test: Pre-emergence herbicidal action against MATIN; format: in vivo, Matricaria inodora; conditions: Tripleurospermum inodorum, 504 h
Method in brief: as §1

ABUTH [13] = test: Pre-emergence herbicidal action against ABUTH; format: in vivo, Abutilon theophrasti; conditions: Abutilon theophrasti, 504 h
Method in brief: as §1

LOLRI = test: Pre-emergence herbicidal action against LOLRI; format: in vivo, Lolium rigidum; conditions: Lolium rigidum, 504 h, 80 g/ha
Method in brief: as §1

STEME [14] = test: Pre-emergence herbicidal action against STEME; format: in vivo, Stellaria media; conditions: Stellaria media, 504 h
Method in brief: as §1

VERPE = test: Post-emergence herbicidal action against VERPE; format: in vivo, Veronica persica; conditions: Veronica persica, 504 h, 20 g/ha
Method in brief: as §2

STEME [15] = test: Post-emergence herbicidal action against STEME; format: in vivo, Stellaria media; conditions: Stellaria media, 504 h
Method in brief: as §2

SETVI [16] = test: Post-emergence herbicidal action against SETVI; format: in vivo, Setaria viridis; conditions: Setaria viridis, 504 h
Method in brief: as §2

HORMU = test: Pre-emergence herbicidal action against HORMU; format: in vivo, Hordeum murinum; conditions: Hordeum murinum, 504 h; 80 g/ha, pre-emergence
Method in brief: as §1

ECHCG [17] = test: Pre-emergence herbicidal action against ECHCG; format: in vivo, Echinochloa crus-galli; conditions: Echinochloa crus-galli, 504 h, 80 g/ha
Method in brief: as §1

VIOTR [18] = test: Post-emergence herbicidal action against VIOTR; format: in vivo, Viola tricolor; conditions: Viola tricolor, 504 h
Method in brief: as §2

ALOMY [19] = test: Post-emergence herbicidal action against ALOMY; format: in vivo, Alopecurus myosuroides; conditions: Alopecurus myosuroides, 504 h, dosage 20 g/ha, visual assessment about 3 weeks after treatment vs untreated controls
Method in brief: as §2

AVEFA [20] = test: Post-emergence herbicidal action against AVEFA; format: in vivo, Avena fatua; conditions: Avena fatua, 504 h, visual assessment about 3 weeks after treatment, 100% = plants have died, 0% = like control plants
Method in brief: as §2

[21] = 80 g/ha, scored visually after 3 weeks vs untreated controls (100% = plants have died, 0% = like control plants)

In the case of `CCNC(=O)c1c(C(F)(F)F)ccc(C(=O)Nc2nnnn2CC)c1Br` [Example 2-208], the pest or weed control at 20 g/ha (VIOTR [1]; dosage 20 g/ha) is reported as 100%, the pest or weed control at 80 g/ha (VIOTR [1]; dosage 80 g/ha) is reported as 100% and the pest or weed control at 20 g/ha (SETVI [2]; dosage 20 g/ha) is reported as 80%. For the same compound, the pest or weed control at 80 g/ha (SETVI [2]; dosage 80 g/ha) was 100%, the pest or weed control at 80 g/ha (POLCO) was 90% and the pest or weed control at 20 g/ha (ECHCG [3]) was 80%. It also gave a pest or weed control at 5 g/ha (PHBPU; dosage 5 g/ha) of 80%, a pest or weed control at 20 g/ha (PHBPU; dosage 20 g/ha) of 80% and a pest or weed control at 20 g/ha (DIGSA [4]; dosage 20 g/ha) of 90%. For the same compound, the pest or weed control at 80 g/ha (DIGSA [4]; dosage 80 g/ha) was 100%, the pest or weed control at 5 g/ha (DIGSA [5]; 5 g/ha) was 80% and the pest or weed control at 20 g/ha (DIGSA [5]; 20 g/ha) was 90%. For the same compound, the pest or weed control at 20 g/ha (AMARE [6]) was 100%, the pest or weed control at 5 g/ha (ABUTH [7]; dosage 5 g/ha) was 90% and the pest or weed control at 20 g/ha (ABUTH [7]; dosage 20 g/ha) was 90%. For the same compound, the pest or weed control at 20 g/ha (AMARE [8]; 20 g/ha) was 100%, the pest or weed control at 80 g/ha (AMARE [8]; 80 g/ha) was 100% and the pest or weed control at 20 g/ha (MATIN [9]) was 80%. For the same compound, the pest or weed control at 80 g/ha (AVEFA [10]) was 100%, the pest or weed control at 80 g/ha (ALOMY [11]; [21]) was 90% and the pest or weed control at 20 g/ha (ALOMY [11]; 20 g/ha, scored visually after 3 weeks, 100% = plants have died, 0% = like control plants) was 80%. The pest or weed control at 20 g/ha (MATIN [12]; dosage 20 g/ha) was 100%, the pest or weed control at 80 g/ha (MATIN [12]; dosage 80 g/ha) was 100% and the pest or weed control at 80 g/ha (ABUTH [13]; [21]) was 100%. For the same compound, the pest or weed control at 20 g/ha (ABUTH [13]; dosage 20 g/ha, scored visually after 3 weeks vs untreated controls, 100% = plants have died, 0% = like control plants, read-out: Pre-emergence action against ABUTH (herbicidal activity in percent)) was 100%, the pest or weed control at 80 g/ha (LOLRI) was 80% and the pest or weed control at 20 g/ha (STEME [14]; dosage 20 g/ha) was 100%. The pest or weed control at 80 g/ha (STEME [14]; dosage 80 g/ha) was 100%, the pest or weed control at 20 g/ha (VERPE) was 80% and the pest or weed control at 20 g/ha (STEME [15]; 20 g/ha) was 100%. The pest or weed control at 5 g/ha (STEME [15]; dosage 5 g/ha) was 80%, the pest or weed control at 5 g/ha (SETVI [16]; dosage 5 g/ha) was 80% and the pest or weed control at 20 g/ha (SETVI [16]; dosage 20 g/ha) was 80%. It also gave a pest or weed control at 80 g/ha (HORMU) of 90%, a pest or weed control at 80 g/ha (ECHCG [17]) of 100% and a pest or weed control at 5 g/ha (VIOTR [18]; 5 g/ha) of 100%. The pest or weed control at 20 g/ha (VIOTR [18]; 20 g/ha) was 100%, the pest or weed control at 20 g/ha (ALOMY [19]) was 80% and the pest or weed control at 5 g/ha (AVEFA [20]; 5 g/ha) was 80%. It also gave a pest or weed control at 20 g/ha (AVEFA [20]; 20 g/ha) of 90%.
